Results as given in publication PMC5218480 (PLoS ONE, 2017).

Tested on: MV-4-11 cells
Assay: Gene expression microarray analysis (Affymetrix PrimeView) and GSEA
Format: cell-based, human
Design: RFU PODN (11730768_x_at) / Fold change /veh PODN (11730768_x_at) / RFU LINC00158 (11744669_a_at) / Fold change /veh LINC00158 (11744669_a_at) / RFU DUSP10 (11751237_a_at) / Fold change /veh DUSP10 (11751237_a_at) / RFU ID3 (11757404_x_at) / Fold change /veh ID3 (11757404_x_at) / RFU PLEKHG5 (11737974_s_at) / Fold change /veh PLEKHG5 (11737974_s_at) / RFU LRRC4B (11730491_at) / Fold change /veh LRRC4B (11730491_at) / RFU GIMAP4 (11747438_a_at) / Fold change /veh GIMAP4 (11747438_a_at) / RFU KRT8 (11758183_x_at) / Fold change /veh KRT8 (11758183_x_at) / RFU CNN1 (11734310_a_at) / Fold change /veh CNN1 (11734310_a_at) / RFU VPS37D (11726825_at) / Fold change /veh VPS37D (11726825_at) / RFU C10orf10 (11716522_x_at) / Fold change /veh C10orf10 (11716522_x_at) / RFU KIR2DL2 /// KIR2DL4 /// KIR2DL5A /// KIR2DL5B /// KIR2DS1 /// KIR2DS2 /// KIR2DS3 /// KIR2DS4 /// KIR3DL3 /// KIR3DL3 /// KIR3DS1 (11738374_at) / Fold change /veh KIR2DL2 /// KIR2DL4 /// KIR2DL5A /// KIR2DL5B /// KIR2DS1 /// KIR2DS2 /// KIR2DS3 /// KIR2DS4 /// KIR3DL3 /// KIR3DL3 /// KIR3DS1 (11738374_at) / RFU C1QL1 (11718748_at) / Fold change /veh C1QL1 (11718748_at) / RFU TMPRSS4 (11747572_a_at) / Fold change /veh TMPRSS4 (11747572_a_at) / RFU HAMP (11756126_x_at) / Fold change /veh HAMP (11756126_x_at) / RFU RNFT2 (11725882_a_at) / Fold change /veh RNFT2 (11725882_a_at) / RFU NR4A2 (11747474_a_at) / Fold change /veh NR4A2 (11747474_a_at) / RFU ABCC12 (11746883_a_at) / Fold change /veh ABCC12 (11746883_a_at) / RFU TMEM136 (11760407_x_at) / Fold change /veh TMEM136 (11760407_x_at) / RFU CLDN22 /// WWC2 (11732394_at) / Fold change /veh CLDN22 /// WWC2 (11732394_at) / RFU HLA-DPB1 (11760878_x_at) / Fold change /veh HLA-DPB1 (11760878_x_at) / RFU SPINT1 (11716480_a_at) / Fold change /veh SPINT1 (11716480_a_at) / RFU GAP43 (11754022_s_at) / Fold change /veh GAP43 (11754022_s_at) / RFU A4GNT (11735810_at) / Fold change /veh A4GNT (11735810_at) / RFU PRB3 (11715151_x_at) / Fold change /veh PRB3 (11715151_x_at) / RFU TUBB4B (11761932_at) / Fold change /veh TUBB4B (11761932_at) / RFU CAPN14 (11732068_a_at) / Fold change /veh CAPN14 (11732068_a_at) / RFU TMCC2 (11721928_a_at) / Fold change /veh TMCC2 (11721928_a_at) / RFU IRGQ (11745062_a_at) / Fold change /veh IRGQ (11745062_a_at) / RFU FAM174B (11720279_a_at) / Fold change /veh FAM174B (11720279_a_at) / RFU TMPRSS4 (11748680_a_at) / Fold change /veh TMPRSS4 (11748680_a_at) / RFU FAM212B (11763350_a_at) / Fold change /veh FAM212B (11763350_a_at) / RFU PLEKHG5 (11743358_a_at) / Fold change /veh PLEKHG5 (11743358_a_at) / RFU ZSCAN30 (11745921_a_at) / Fold change /veh ZSCAN30 (11745921_a_at) / RFU CMKLR1 (11741424_a_at) / Fold change /veh CMKLR1 (11741424_a_at) / RFU LOC101060620 /// MAPK8IP1 (11723275_at) / Fold change /veh LOC101060620 /// MAPK8IP1 (11723275_at) / RFU SPTSSB (11747773_x_at) / Fold change /veh SPTSSB (11747773_x_at) / RFU PRSS12 (11739890_at) / Fold change /veh PRSS12 (11739890_at) / RFU BIN1 (11741810_x_at) / Fold change /veh BIN1 (11741810_x_at) / RFU WNT11 (11732464_a_at) / Fold change /veh WNT11 (11732464_a_at) / RFU C10orf10 (11716521_a_at) / Fold change /veh C10orf10 (11716521_a_at) / RFU C5orf56 (11738089_at) / Fold change /veh C5orf56 (11738089_at) / RFU CYB561 (11721691_x_at) / Fold change /veh CYB561 (11721691_x_at) / RFU ANKRD19P (11752326_a_at) / Fold change /veh ANKRD19P (11752326_a_at) / RFU OR2T12 /// OR2T33 /// OR2T8 (11738714_s_at) / Fold change /veh OR2T12 /// OR2T33 /// OR2T8 (11738714_s_at) / RFU VCAN (11748164_a_at) / Fold change /veh VCAN (11748164_a_at) / RFU JSRP1 (11732532_at) / Fold change /veh JSRP1 (11732532_at) / RFU KRTAP10-11 (11738290_x_at) / Fold change /veh KRTAP10-11 (11738290_x_at) / RFU MYO3A (11730013_a_at) / Fold change /veh MYO3A (11730013_a_at) / RFU EBF3 (11725865_a_at) / Fold change /veh EBF3 (11725865_a_at) / RFU CAMK2N1 (11719241_x_at) / Fold change /veh CAMK2N1 (11719241_x_at) / RFU C5orf56 (11738088_a_at) / Fold change /veh C5orf56 (11738088_a_at) / RFU OLFML3 (11715873_a_at) / Fold change /veh OLFML3 (11715873_a_at) / RFU LOC100653217 /// NTM (11731650_a_at) / Fold change /veh LOC100653217 /// NTM (11731650_a_at) / RFU MAPK11 (11762145_a_at) / Fold change /veh MAPK11 (11762145_a_at) / RFU FIZ1 (11724087_x_at) / Fold change /veh FIZ1 (11724087_x_at) / RFU OASL (11726364_x_at) / Fold change /veh OASL (11726364_x_at) / RFU SOX15 (11748057_x_at) / Fold change /veh SOX15 (11748057_x_at) / RFU CD79A (11719716_a_at) / Fold change /veh CD79A (11719716_a_at) / RFU HIST1H1D (11736915_at) / Fold change /veh HIST1H1D (11736915_at) / RFU CASKIN2 (11723855_a_at) / Fold change /veh CASKIN2 (11723855_a_at) / RFU LOC730098 (11760151_x_at) / Fold change /veh LOC730098 (11760151_x_at) / RFU OR4N2 (11742367_at) / Fold change /veh OR4N2 (11742367_at) / RFU PRRT2 (11749266_a_at) / Fold change /veh PRRT2 (11749266_a_at) / RFU SNX32 (11753110_a_at) / Fold change /veh SNX32 (11753110_a_at) / RFU CDHR5 (11726645_a_at) / Fold change /veh CDHR5 (11726645_a_at) / RFU RCAN1 (11760418_a_at) / Fold change /veh RCAN1 (11760418_a_at) / RFU FAM167A (11723789_a_at) / Fold change /veh FAM167A (11723789_a_at) / RFU FAM26E (11764081_at) / Fold change /veh FAM26E (11764081_at) / RFU ISYNA1 (11749810_s_at) / Fold change /veh ISYNA1 (11749810_s_at) / RFU ACY1 (11761880_at) / Fold change /veh ACY1 (11761880_at) / RFU 11764098_at / Fold change /veh 11764098_at / RFU SAMD14 (11745864_x_at) / Fold change /veh SAMD14 (11745864_x_at) / RFU NPB (11741838_a_at) / Fold change /veh NPB (11741838_a_at) / RFU TMPRSS6 (11731388_a_at) / Fold change /veh TMPRSS6 (11731388_a_at) / RFU KRTAP10-2 (11738614_at) / Fold change /veh KRTAP10-2 (11738614_at) / RFU ARHGAP8 /// PRR5-ARHGAP8 (11727945_x_at) / Fold change /veh ARHGAP8 /// PRR5-ARHGAP8 (11727945_x_at) / RFU KRTAP5-7 /// NADSYN1 (11734609_at) / Fold change /veh KRTAP5-7 /// NADSYN1 (11734609_at) / RFU RASL12 (11751679_a_at) / Fold change /veh RASL12 (11751679_a_at) / RFU CDKN2B (11736163_a_at) / Fold change /veh CDKN2B (11736163_a_at) / RFU PRF1 (11729649_at) / Fold change /veh PRF1 (11729649_at) / RFU, ZNF638 /// ZNF638-IT1 / Fold change vs veh, ZNF638 /// ZNF638-IT1 / RFU, PANK3 / Fold change vs veh, PANK3 / RFU, SH3YL1 / Fold change vs veh, SH3YL1 / RFU, ZEB2 / Fold change vs veh, ZEB2 / RFU, NRIP1 / Fold change vs veh, NRIP1 / RFU, PTTG1IP / Fold change vs veh, PTTG1IP / RFU, CAPN2 / Fold change vs veh, CAPN2 / RFU, MED14 / Fold change vs veh, MED14 / RFU, SNORA58 / Fold change vs veh, SNORA58 / RFU, C1orf63 / Fold change vs veh, C1orf63 / RFU, LRRFIP1 / Fold change vs veh, LRRFIP1 / RFU, NDUFAF7 / Fold change vs veh, NDUFAF7 / RFU, SLC12A2 / Fold change vs veh, SLC12A2 / RFU, IBTK / Fold change vs veh, IBTK / RFU, ESF1 / Fold change vs veh, ESF1 / Fold change vs veh, TMEM50B / RFU, TAOK1 / Fold change vs veh, TAOK1 / RFU, ACBD3 / Fold change vs veh, ACBD3 / RFU, TMA16 / Fold change vs veh, TMA16 / RFU, RWDD3 / Fold change vs veh, RWDD3 / RFU, BCAT1 / Fold change vs veh, BCAT1 / RFU, EDEM3 / Fold change vs veh, EDEM3 / RFU, TMEM33 / Fold change vs veh, TMEM33 / RFU, WDR75 / Fold change vs veh, WDR75 / RFU, AHCTF1 / Fold change vs veh, AHCTF1 / RFU, TFRC / Fold change vs veh, TFRC / RFU, ZDHHC17 / Fold change vs veh, ZDHHC17 / RFU, NOM1 / Fold change vs veh, NOM1 / RFU, ARL8B / Fold change vs veh, ARL8B / RFU, ZBTB11 / Fold change vs veh, ZBTB11 / RFU, TAMM41 / Fold change vs veh, TAMM41 / RFU, KIAA1704 /// LOC100996395 / Fold change vs veh, KIAA1704 /// LOC100996395 / RFU, ING1 / Fold change vs veh, ING1 / RFU, TRMT61B / Fold change vs veh, TRMT61B / RFU, FUBP3 / Fold change vs veh, FUBP3 / RFU, TP53 / Fold change vs veh, TP53 / RFU, TNKS2 / Fold change vs veh, TNKS2 / RFU, ZFP14 / Fold change vs veh, ZFP14 / RFU, ACTR2 / Fold change vs veh, ACTR2 / RFU, PPP3R1 / Fold change vs veh, PPP3R1 / RFU, PIK3R1 / Fold change vs veh, PIK3R1 / RFU, HNRNPA1 / Fold change vs veh, HNRNPA1 / RFU, RNF170 / Fold change vs veh, RNF170 / RFU, ZNF28 / Fold change vs veh, ZNF28 / RFU, RNGTT / Fold change vs veh, RNGTT / RFU, OGT / Fold change vs veh, OGT / RFU, BRD1 / Fold change vs veh, BRD1 / RFU, MARS / Fold change vs veh, MARS / RFU, ZNF655 / Fold change vs veh, ZNF655 / RFU, FAHD1 / Fold change vs veh, FAHD1 / RFU, BDP1 / Fold change vs veh, BDP1 / RFU, LRRCC1 / Fold change vs veh, LRRCC1 / RFU, ARID1A / Fold change vs veh, ARID1A / RFU, ZNF146 / Fold change vs veh, ZNF146 / RFU, ZNF330 / Fold change vs veh, ZNF330 / RFU, GPN3 / Fold change vs veh, GPN3 / RFU, C9orf123 / Fold change vs veh, C9orf123 / RFU, N4BP2L2 / Fold change vs veh, N4BP2L2 / RFU, ARFIP1 / Fold change vs veh, ARFIP1 / RFU, FAM179B / Fold change vs veh, FAM179B / RFU, BCL10 / Fold change vs veh, BCL10 / RFU, UHRF1BP1L / Fold change vs veh, UHRF1BP1L / RFU, BET1 / Fold change vs veh, BET1 / RFU, CNOT2 / Fold change vs veh, CNOT2 / RFU, ZNF268 / Fold change vs veh, ZNF268 / Fold change vs veh, ZNF507 / RFU, DGCR2 / Fold change vs veh, DGCR2 / RFU, WDSUB1 / Fold change vs veh, WDSUB1 / Fold change vs veh, HSP90B1 /// MIR3652 / RFU, ADSS / Fold change vs veh, ADSS / RFU, GK / Fold change vs veh, GK / RFU, ZNF148 / Fold change vs veh, ZNF148 / RFU, TAF9 / Fold change vs veh, TAF9 / RFU, SLC1A5 / Fold change vs veh, SLC1A5 / RFU, SLMO2 / Fold change vs veh, SLMO2 / RFU, ABCC4 / Fold change vs veh, ABCC4 / RFU, LOC101060439 /// RAP1B / Fold change vs veh, LOC101060439 /// RAP1B / RFU, RFX7 / Fold change vs veh, RFX7 / RFU, GTPBP10 / Fold change vs veh, GTPBP10 / RFU, CNEP1R1 / Fold change vs veh, CNEP1R1 / RFU, BIVM-ERCC5 /// ERCC5 / Fold change vs veh, BIVM-ERCC5 /// ERCC5 / RFU, ILF3 / Fold change vs veh, ILF3 / RFU 11762660_at / Fold change /veh 11762660_at / RFU VCAN (11757783_s_at) / Fold change /veh VCAN (11757783_s_at) / RFU DDX43 (11728927_at) / Fold change /veh DDX43 (11728927_at) / RFU KRT8 (11758188_x_at) / Fold change /veh KRT8 (11758188_x_at) / RFU NKD1 (11759106_at) / Fold change /veh NKD1 (11759106_at) / RFU SRD5A1 (11742802_a_at) / Fold change /veh SRD5A1 (11742802_a_at) / RFU TPSAB1 /// TPSB2 (11721975_s_at) / Fold change /veh TPSAB1 /// TPSB2 (11721975_s_at) / RFU GSTM3 (11746129_a_at) / Fold change /veh GSTM3 (11746129_a_at) / RFU IL23R (11737362_x_at) / Fold change /veh IL23R (11737362_x_at) / RFU TMEM51 (11727254_a_at) / Fold change /veh TMEM51 (11727254_a_at) / RFU PIWIL2 (11732686_x_at) / Fold change /veh PIWIL2 (11732686_x_at) / RFU ORM1 (11744905_x_at) / Fold change /veh ORM1 (11744905_x_at) / RFU CCDC152 (11743942_at) / Fold change /veh CCDC152 (11743942_at) / RFU ECM1 (11717891_a_at) / Fold change /veh ECM1 (11717891_a_at) / RFU IL23R (11748794_a_at) / Fold change /veh IL23R (11748794_a_at) / RFU TNFAIP8L3 (11732012_x_at) / Fold change /veh TNFAIP8L3 (11732012_x_at) / RFU MBOAT4 (11741988_at) / Fold change /veh MBOAT4 (11741988_at) / RFU 11764193_at / Fold change /veh 11764193_at / RFU TMEM53 (11763286_at) / Fold change /veh TMEM53 (11763286_at) / RFU MAGEB2 (11727129_at) / Fold change /veh MAGEB2 (11727129_at) / RFU TMEM200A (11744735_a_at) / Fold change /veh TMEM200A (11744735_a_at) / RFU CCDC152 (11751479_a_at) / Fold change /veh CCDC152 (11751479_a_at) / RFU FAM211A (11726209_a_at) / Fold change /veh FAM211A (11726209_a_at) / RFU RGS16 (11746705_a_at) / Fold change /veh RGS16 (11746705_a_at) / RFU VCAN (11755009_s_at) / Fold change /veh VCAN (11755009_s_at) / RFU RHOB (11743442_s_at) / Fold change /veh RHOB (11743442_s_at) / RFU RGS16 (11720943_a_at) / Fold change /veh RGS16 (11720943_a_at) / RFU RGS16 (11720944_at) / Fold change /veh RGS16 (11720944_at) / RFU, VPS4B / Fold change vs veh, VPS4B / RFU, CREB1 / Fold change vs veh, CREB1 / RFU, DNAJC13 / Fold change vs veh, DNAJC13 / RFU, GNAQ / Fold change vs veh, GNAQ / RFU, CDK5R1 / Fold change vs veh, CDK5R1 / RFU, ZRANB3 / Fold change vs veh, ZRANB3 / RFU, CUL4A / Fold change vs veh, CUL4A / RFU, CCNY / Fold change vs veh, CCNY / RFU, UFL1 / Fold change vs veh, UFL1 / RFU, COG3 / Fold change vs veh, COG3 / RFU, DIAPH2 / Fold change vs veh, DIAPH2 / RFU, SKA2 / Fold change vs veh, SKA2 / RFU, AFF3 / Fold change vs veh, AFF3 / RFU, LMF1 / Fold change vs veh, LMF1 / RFU, IPO11 / Fold change vs veh, IPO11 / RFU, DFFB / Fold change vs veh, DFFB / RFU, FOXP1 / Fold change vs veh, FOXP1 / RFU, CARD8 / Fold change vs veh, CARD8 / RFU, STRN3 / Fold change vs veh, STRN3 / RFU, ADK / Fold change vs veh, ADK / RFU, RASSF2 / Fold change vs veh, RASSF2 / RFU, WIPF1 / Fold change vs veh, WIPF1 / RFU, LARP1B / Fold change vs veh, LARP1B / RFU, RASA1 / Fold change vs veh, RASA1 / RFU, RB1 / Fold change vs veh, RB1 / RFU, PPFIA1 / Fold change vs veh, PPFIA1 / RFU, MAT2A / Fold change vs veh, MAT2A / RFU, CCT5 / Fold change vs veh, CCT5 / RFU, WDR92 / Fold change vs veh, WDR92 / RFU, CUX1 / Fold change vs veh, CUX1 / RFU, TTC7A / Fold change vs veh, TTC7A / RFU, TMEM135 / Fold change vs veh, TMEM135 / RFU, DEPTOR / Fold change vs veh, DEPTOR / RFU, CPM / Fold change vs veh, CPM / RFU, DNAJB6 / Fold change vs veh, DNAJB6 / RFU, CACNA2D3 / Fold change vs veh, CACNA2D3 / RFU, DTX4 / Fold change vs veh, DTX4 / RFU, TFCP2 / Fold change vs veh, TFCP2 / RFU, GMCL1 /// GMCL1P1 / Fold change vs veh, GMCL1 /// GMCL1P1 / RFU, AEBP2 / Fold change vs veh, AEBP2 / RFU, SNHG1 /// SNORD22 /// SNORD25 /// SNORD26 /// SNORD27 /// SNORD28 /// SNORD29 /// SNORD31 / Fold change vs veh, SNHG1 /// SNORD22 /// SNORD25 /// SNORD26 /// SNORD27 /// SNORD28 /// SNORD29 /// SNORD31 / Fold change (Aza/veh), C12orf56 (ProbeSet 11735607_a_at) / Fold change (ACY-1035/veh), C12orf56 (ProbeSet 11735607_a_at) / Fold change (Aza/veh), FGFR1OP (ProbeSet 11751329_s_at) / Fold change (ACY-1035/veh), FGFR1OP (ProbeSet 11751329_s_at) / Fold change (Aza/veh), VPS36 (ProbeSet 11739960_a_at) / Fold change (ACY-1035/veh), VPS36 (ProbeSet 11739960_a_at) / RFU SYPL1 (11715823_x_at) / Fold change /veh SYPL1 (11715823_x_at) / RFU IGFBP7 (11715501_s_at) / Fold change /veh IGFBP7 (11715501_s_at) / RFU REEP3 (11722064_at) / Fold change /veh REEP3 (11722064_at) / RFU IGLL1 (11728026_x_at) / Fold change /veh IGLL1 (11728026_x_at): dose or concentration left out as unconfirmed
Details: ProbeSet 11731583_a_at; LIST D

SMILES: Nc1ccc(-c2cccs2)cc1NC(=O)c1ccc2c(c1)cc(C1CC1)n2CCN1CCOCC1 [ACY-1035]
- Fold change vs veh, LARP1B: 0.85
